Laboratory results from patent US10351530B2, “Arylcyclohexyl pyrazoles as NRF2 regulators” (GlaxoSmithKline Intellectual Property Development Limited, priority 2015, dated 2019).

Tests used:
Keap1/NRF2 = target: T1, Keap1/NRF2 (Homo sapiens, UniProt Q14145); test: NRF2-Keap1 FP Assay (Kelch domain (321-609) of Keap1, TAMRA-labeled NRF2 ETGE peptide); format: binding; conditions: Keap1 (321-609) 20 nM, Tamra labeled peptide 8 nM
T1 construct: Keap1 (321-609) is diluted to 40 nM (2×) in 1× assay buffer
T1 sequence (Q14145 321-609): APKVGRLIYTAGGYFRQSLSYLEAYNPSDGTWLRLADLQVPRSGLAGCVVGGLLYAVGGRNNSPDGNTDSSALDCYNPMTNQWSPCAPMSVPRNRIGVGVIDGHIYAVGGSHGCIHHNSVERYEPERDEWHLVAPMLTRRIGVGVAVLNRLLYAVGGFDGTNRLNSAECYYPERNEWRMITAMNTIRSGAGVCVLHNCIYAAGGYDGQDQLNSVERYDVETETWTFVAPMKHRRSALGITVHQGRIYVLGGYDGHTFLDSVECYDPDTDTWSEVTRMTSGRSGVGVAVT
Method in brief: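 Fluorescence polarization competition: Keap1 Kelch (321-609) at 20 nM final and TAMRA-ETGE 16-mer peptide at 8 nM final with 3-fold compound dilutions, 1 h room temperature in Tris pH 8.0 buffer (NaCl, MgCl2, DTT, CHAPS, BSA). mP normalized to protein+peptide and peptide-alone controls; pIC50 by four-parameter fit.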

NRF2/Keap1 = target: T2, NRF2/Keap1 (Homo sapiens, UniProt Q14145); test: NRF2-Keap1 TR-FRET Assay (full length NRF2 and full length Keap1); format: binding; conditions: 25 nM Keap1-FlagHis, 50 nM biotin-NRF2 added
T2 construct: full length NRF2 protein and full length Keap1 protein (Keap1 exists a dimer) are used
T2 sequence (Q14145 whole entry): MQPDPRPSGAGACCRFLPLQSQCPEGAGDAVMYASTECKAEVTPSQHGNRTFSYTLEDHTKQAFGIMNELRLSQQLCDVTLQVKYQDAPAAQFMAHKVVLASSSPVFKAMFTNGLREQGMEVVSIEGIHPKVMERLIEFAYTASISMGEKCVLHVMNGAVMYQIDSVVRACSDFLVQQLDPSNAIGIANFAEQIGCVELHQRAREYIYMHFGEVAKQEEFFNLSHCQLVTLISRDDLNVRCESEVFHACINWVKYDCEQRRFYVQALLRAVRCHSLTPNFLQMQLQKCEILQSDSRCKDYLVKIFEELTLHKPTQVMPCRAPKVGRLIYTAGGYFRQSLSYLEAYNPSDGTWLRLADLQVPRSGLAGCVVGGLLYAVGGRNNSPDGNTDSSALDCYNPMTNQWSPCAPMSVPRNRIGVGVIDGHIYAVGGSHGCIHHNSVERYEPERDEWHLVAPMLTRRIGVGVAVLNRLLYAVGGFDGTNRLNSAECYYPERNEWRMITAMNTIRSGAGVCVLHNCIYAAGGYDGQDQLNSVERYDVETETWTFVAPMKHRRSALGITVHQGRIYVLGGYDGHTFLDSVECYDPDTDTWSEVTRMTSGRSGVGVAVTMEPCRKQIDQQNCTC
Text: In the NRF2-Keap1 TR-FRET (time-resolved fluorescence resonance energy transfer) assay, full length NRF2 protein and full length Keap1 protein (Keap1 exists a dimer) are used. The assay detects the ability of compound to displace the binding of FlagHis-tagged Keap1 with biotinylated, Avi-tagged NRF2 protein. Biotin-NRF2 binds to streptavidin-europium (a component of the detection mix) and Keap1-FlagHis is recognized by anti-Flag APC (allophycocyanin) antibody (also a component of the detection mix). If binding occurs between the two proteins, there will be an energy transfer from the Eu+3 (donor) at 615 nm to the APC (acceptor) at 665 nm. A potential Keap1 inhibitor will cause a reduction in the TR-FRET signal by interfering with the binding of Keap1 to NRF2.
One hundred nanoliters of 100× compound dose response curves (serial 3-fold dilutions) in DMSO are stamped using an Echo liquid handling system (Labcyte) into 384-well, low volume, black assay plates (Greiner, #784076), with DMSO in columns 6 and 18. The top concentration of compound is located in columns 1 and 13. All reagents are diluted in assay buffer (50 mM Tris, pH 8.0, 5 mM MgCl2, 100 mM NaCl, 0.005% BSA, 1 mM DTT, and 2 mM CHAPS). The BSA, DTT, and CHAPS are added to the assay buffer on the day of assay. Using a Multidrop Combi (Thermo Electron Corporation) equipped with a metal tip dispenser, 5 ul of 25 nM Keap1-FlagHis protein is added to all wells of the compound plate, with the exception of the wells in column 18. Wells in column 18 receive 5 ul of assay buffer instead. Plates are centrifuged at 500 rpm for 1 minute, covered with a plate lid, and incubated at 37° C. for 2.25 hours. Plates are then removed from the incubator and allowed to cool to RT for 15 minutes. Five microliters of 50 nM biotin-NRF2 protein is then added to all wells of the plates and the plates are spun at 500 rpm for 1 minute, followed by incubating at 4° C. for 1.25 hours. The plates are then allowed to warm to RT for 15 minutes, followed by the addition of 10 ul of detection mix (1 nM Streptavidin Eu+ W1024 and 5 ug/ml mouse anti-DYKDDDDK IgG conjugated to SureLight APC antibody; both from Columbia Biosciences) to all wells. Plates are spun at 500 rpm for 1 minute, incubated for 1 hour at RT, and read on an Envision plate reader using a 320 nm excitation filter and 615 nm and 665 nm emission filters. Compound response (% inhibition) and potency (pIC50) are calculated based on the ratio of the two emissions (665 nm/615 nm) and then the transformed data is normalized against controls in the assay (control 1=1% DMSO in the presence of NRF2 and Keap1 protein and control 2=1% DMSO in the absence of protein). Data analysis is handled using the software package Abase XE (Surrey, United Kingdom). The % inhibition values are calculated from the ratio (transformed) data by the equation: 100−(100*(compound response-average control 2)/(average control 1−average control 2)).
For calculation of pIC50s, Abase XE uses a four parameter equation.

Row | SMILES | IC50 (Keap1/NRF2) | IC50 (NRF2/Keap1)
1 | CCCCC1CCCN1C(=O)C1CCCC(c2cccc(-n3ncc(C(=O)O)c3C3CC3c3cn(C)nn3)c2)C1 (stereo not drawn) [Example 42, 1-(3-(3-(2-Butylpyrrolidine-1-carbonyl)cyclohexyl)phenyl)-5-(2-(1-methyl-1H-1,2,3-triazol-4-yl)cyclopropyl)-1H-pyrazole-4-carboxylic Acid] | 0.01 to 0.1 µM | 0.1 to 1 µM
2 | O=C(O)c1cnn(-c2cccc(C3CCCC(C(=O)N4CCCC4C4CC4)C3)c2)c1C1CC1 (racemic) [Example 12, 5-cyclopropyl-1-{3-[3-(2-cyclopropylpyrrolidine-1-carbonyl)cyclohexyl]phenyl}-1H-pyrazole-4-carboxylic Acid] | 0.01 to 0.1 µM | 0.1 to 1 µM
3 | CC(C)CCC1CCCN1C(=O)C1CCCC(c2cccc(-n3ncc(C(=O)O)c3C3CC3)c2)C1 (racemic) [Example 11, 5-Cyclopropyl-1-(3-{3-[2-(3-methylbutyl)pyrrolidine-1-carbonyl]cyclohexyl}phenyl)-1H-pyrazole-4-carboxylic Acid] | 0.01 to 0.1 µM | 0.1 to 1 µM
4 | CCCCC1CCCC1N(C)C(=O)C1CCCC(c2cccc(-n3ncc(C(=O)O)c3C3CC3)c2)C1 (stereo not drawn) [Example 41, 1-(3-(3-((2-Butylcyclopentyl)(methyl)carbamoyl)cyclohexyl)phenyl)-5-cyclopropyl-1H-pyrazole-4-carboxylic Acid] | 0.1 to 1 µM | 1 to 10 µM
5 | Cn1cc(C2CC2c2c(C(=O)O)cnn2-c2cccc([C@H]3CCC[C@H](n4ncc5c4C(C)(C)CC5)C3)c2)nn1 (stereo partly drawn) [Example 40, 1-(3-((1,3-trans)-3-(6,6-Dimethyl-5,6-dihydrocyclopenta[c]pyrazol-1(4H)-yl)cyclohexyl)phenyl)-5-(2-(1-methyl-1H-1,2,3-triazol-4-yl)cyclopropyl)-1H-pyrazole-4-carboxylic Acid] | 0.01 to 0.1 µM | 0.1 to 1 µM
6 | Cn1cc(C2CC2c2c(C(=O)O)cnn2-c2cccc([C@@H]3CCC[C@H](n4ncc5c4C(C)(C)CC5)C3)c2)nn1 (stereo partly drawn) [Example 39, 1-(3-((1R,3S)-3-(6,6-Dimethyl-5,6-dihydrocyclopenta[c]pyrazol-1(4H)-yl)cyclohexyl)phenyl)-5-(2-(1-methyl-1H-1,2,3-triazol-4-yl)cyclopropyl)-1H-pyrazole-4-carboxylic Acid] | 0.01 to 0.1 µM | 0.01 to 0.1 µM
7 | O=C(O)c1cnn(-c2cccc(C3=CC(C(=O)N4CCCCCC4)CCC3)c2)c1C1CC1 (stereo not drawn) [Example 19, 1-(5′-(Azepane-1-carbonyl)-2′,3′,4′,5′-tetrahydro-[1,1′-biphenyl]-3-yl)-5-cyclopropyl-1H-pyrazole-4-carboxylic Acid] | 0.1 to 1 µM | 1 to 10 µM
8 | CC1(C)CCc2cnn([C@@H]3CCC[C@@H](c4cccc(-n5ncc(C(=O)O)c5C5CC5)c4)C3)c21 (racemic) [Example 23, 5-Cyclopropyl-1-(3-(t-3-(6,6-dimethyl-5,6-dihydrocyclopenta[c]pyrazol-1(4H)-yl)cyclohexyl)phenyl)-1H-pyrazole-4-carboxylic Acid] | 1 to 10 µM | 10 to 100 µM
9 | CCCCC1CCc2cnn([C@@H]3CCC[C@@H](c4cccc(-n5ncc(C(=O)O)c5C5CC5)c4)C3)c21 (stereo partly drawn) [Example 38, 1-(3-((1,3-trans)-3-(6-Butyl-5,6-dihydrocyclopenta[c]pyrazol-1(4H)-yl)cyclohexyl)phenyl)-5-cyclopropyl-1H-pyrazole-4-carboxylic Acid] | 1 to 10 µM | 10 to 100 µM

Results, then the molecule that gave them:

Row | IC50 (Keap1/NRF2) | IC50 (NRF2/Keap1) | SMILES
10 | 0.01 to 0.1 µM | 0.1 to 1 µM | CCCCC1CCCN1C(=O)C1CCCC(c2cccc(-n3ncc(C(=O)O)c3C3CC3)c2)C1 (racemic) [Example 8c, 1-{3-[3-(2-Butylpyrrolidine-1-carbonyl)cyclohexyl]phenyl}-5-cyclopropyl-1H-pyrazole-4-carboxylic Acid]
11 | 0.01 to 0.1 µM | 0.01 to 0.1 µM | CCCC[C@@H]1CCCN1C(=O)[C@H]1CCC[C@@H](c2cccc(-n3ncc(C(=O)O)c3C3CC3)c2)C1 [Example 17f, 1-{3-[(1R,3S)-3-[(2R)-2-Butylpyrrolidine-1-carbonyl]cyclohexyl]phenyl}-5-cyclopropyl-1H-pyrazole-4-carboxylic Acid]
12 | 0.01 to 0.1 µM | 0.01 to 0.1 µM | CCOC[C@@H]1CCCN1C(=O)C1CCCC(c2cccc(-n3ncc(C(=O)O)c3C3CC3)c2)C1 (single isomer, unassigned) [Example 18g]
